Assay results taken from patent US20220112165A1, “PEGYLATED PRODRUGS OF PHENOLIC TRPV1 AGONISTS” (priority 2018, published 2022).
Like-named read-outs stand apart in the source and are kept apart here.

Assay: In vitro (pH stability) assay: intramolecular cyclization-release of capsaicin from the prodrug in buffer
Type: physicochemical
Details: for stability at pH 4.5 at room temperature in comparison to the non-acylated prodrug (compound 6): pH 4.5, RT
Description: The compounds described herein are examples of pH activated prodrugs whereby upon exposure to a specific pH, the half-life of the intramolecular cyclization-release reaction is determined. The intramolecular cyclization-release reaction results in the concomitant formation of a cyclic urea with the release of the parent drug.
Compounds were incubated in the buffer/biological media indicated. The reactions were conducted at either room temperature or 37° C. In some embodiments, additional common ingredients/formulations which may be used in buffers for the testing of the cyclization-release of the compounds described herein include but are not limited to: N-(2-Acetamido)-2-aminoethanesulfonic acid, N-(2-Acetamido)iminodiacetic acid, 2-Amino-2-methyl-1,3-propanediol, salts of bicarbonate, N,N-Bis(2-hydroxyethyl)glycine, 2-Bis(2-hydroxyethyl)amino-2-(hydroxymethyl)-1,3-propanediol, 3-(Cyclohexylamino)-1-propanesulfonic acid, 2-(Cyclohexylamino)ethanesulfonic acid, salts of carbonate, salts of citrate, 4-(2-Hydroxyethyl)-1-piperazinepropanesulfonic acid, salts of glycine, salts of Glycyl-glycine, 4-(2-Hydroxyethyl)piperazine-1-ethanesulfonic acid, 4-Morpholineethanesulfonic acid, 4-Morpholinepropanesulfonic acid, 1,4-Piperazinediethanesulfonic acid, salts of phosphate, salts of tartrate, 2-[(2-Hydroxy-1,1-bis(hydroxymethyl)ethyl)amino]ethanesulfonic acid, Tris(2-hydroxyethyl)amine, and salts of EDTA.
Samples were collected at specific time points, quenched with a 1.0% TFA in acetonitrile solution to stop the cyclization-release reaction and analyzed by HPLC for formation of released capsaicin, cyclic urea by-product, and consumption of starting compound in plasma and cerebrospinal fluid (CSF).

[1] = buffer (simulated physiological conditions), simulated physiological conditions, pH 7.4 & 37° C., read-out: half-life of conversion to capsaicin
[2] = pH = 4.5 (0.1M aqueous sodium acetate buffer), RT, read-out: Intramolecular Cyclization-Release Half-life (T1/2) at pH 4.5 & RT (converted)
[3] = pH = 7.4 (0.2M aqueous tris buffer), 37° C., read-out: Intramolecular Cyclization-Release Half-life (T1/2) at pH 7.4 & 37° C.

Row | Compound | half-life [1] [min] | stability at pH 4.5 at room temperature in comparison to the non-acylated prodrug (compound 6) | half-life [2] [min] | half-life [3] [min]
1 | CNCC1CN(C(=O)CCOCCOCCOCCOC)CCN1C(=O)Oc1ccc(CNC(=O)CCCC/C=C/C(C)C)cc1OC (stereo not drawn) [Compound 1, (E)-2-methoxy-4-((8-methylnon-6-enamido)methyl)phenyl 2-((methylamino)methyl)-4-(2,5,8,11-tetraoxatetradecan-14-oyl)piperazine-1-carboxylate] | < 5 | significant and unexpected increase in stability | 2600 | ~0.8
2 | CNCC1CN(C(=O)CCOCCOCCOCCOCCOCCOCCOC)CCN1C(=O)Oc1ccc(CNC(=O)CCCC/C=C/C(C)C)cc1OC (stereo not drawn) [Compound 2, (E)-2-methoxy-4-((8-methylnon-6-enamido)methyl)phenyl 2-((methylamino)methyl)-4-(2,5,8,11,14,17,20-heptaoxatricosan-23-oyl)piperazine-1-carboxylate] | < 5 | significant and unexpected increase in stability | 2450 | ~0.7
3 | CNCC1CN(C(=O)CCOCCOCCOCCOCCOCCOCCOCCOCCOCCOC)CCN1C(=O)Oc1ccc(CNC(=O)CCCC/C=C/C(C)C)cc1OC (stereo not drawn) [Compound 3, (E)-2-methoxy-4-((8-methylnon-6-enamido)methyl)phenyl 4-(2,5,8,11,14,17,20,23,26,29-decaoxadotriacontan-32-oyl)-2-((methylamino)methyl)piperazine-1-carboxylate] | < 5 | significant and unexpected increase in stability | 3060 | ~0.8
4 | CNCC1CN(C(=O)CCOCCOCCOCCOCCOCCOCCOCCOCCOCCOCCOCCOCCOC)CCN1C(=O)Oc1ccc(CNC(=O)CCCC/C=C/C(C)C)cc1OC (stereo not drawn) [Compound 4, (E)-2-methoxy-4-((8-methylnon-6-enamido)methyl)phenyl 4-(2,5,8,11,14,17,20,23,26,29,32,35,38-tridecaoxahentetracontan-41-oyl)-2-((methylamino)methyl)piperazine-1-carboxylate] | < 5 | – | – | ~0.6
5 | CNCC1CNCCN1C(=O)Oc1ccc(CNC(=O)CCCC/C=C/C(C)C)cc1OC (stereo not drawn) [Compound 5] | < 5 | – | – | ~0.4
6 | CNCC1CN(C)CCN1C(=O)Oc1ccc(CNC(=O)CCCC/C=C/C(C)C)cc1OC (stereo not drawn) [Compound 6, (E)-2-methoxy-4-((8-methylnon-6-enamido)methyl)phenyl 4-methyl-2-((methylamino)methyl)piperazine-1-carboxylate] | < 5 | – | 78 | ~0.8
7 | CNCC1CN(C(C)=O)CCN1C(=O)Oc1ccc(CNC(=O)CCCC/C=C/C(C)C)cc1OC (stereo not drawn) [Compound 7, (E)-2-methoxy-4-((8-methylnon-6-enamido)methyl)phenyl 4-acetyl-2-((methylamino)methyl)piperazine-1-carboxylate] | < 5 | significant and unexpected increase in stability | 6930 | ~0.9
8 | CCOC(=O)N1CCN(C(=O)Oc2ccc(CNC(=O)CCCC/C=C/C(C)C)cc2OC)C(CNC)C1 (stereo not drawn) [Compound 8, (E)-4-ethyll-(2-methoxy-4-((8-methylnon-6-enamido)methyl)phenyl) 2-((methylamino)methyl)piperazine-1,4-dicarboxylate] | < 5 | significant and unexpected increase in stability | 2770 | ~1.3
